Reference: patent publication US9732060B2, “Aminotriazine derivative and pharmaceutical composition comprising the same” (Shionogi & Co., Ltd., priority 2013, dated 2017)

Assays:
CYP1A2 = CYP1A2 (Homo sapiens (Human), UniProt P05177); experiment: CYP inhibition test, CYP1A2; format: in vitro ADME; conditions: pooled human hepatic microsome; 7-ethoxyresorufin-O-deethylation
Method: (§1) Using commercially available pooled human hepatic microsome, and employing, as markers, 7-ethoxyresorufin-O-deethylation (CYP1A2), tolbutamide methyl-hydroxylation (CYP2C9), mephenytoin 4′-hydroxylation (CYP2C19), dextromethorphan O-demethylation (CYP2D6), and terfenedine hydroxylation as typical substrate metabolism reactions of human main five CYP enzyme forms (CYP1A2, 2C9, 2C19, 2D6, 3A4), an inhibitory degree of each metabolite production amount by a test compound was assessed.
(§2) The reaction conditions were as follows: substrate, 0.5 μmol/L ethoxyresorufin (CYP1A2), 100 μmol/L tolbutamide (CYP2C9), 50 μmol/L S-mephenitoin (CYP2C19), 5 μmol/L dextromethorphan (CYP2D6), 1 μmol/L terfenedine (CYP3A4); reaction time, 15 minutes; reaction temperature, 37° C. enzyme, pooled human hepatic microsome 0.2 mg protein/mL; test, drug concentration, 1.0, 5.0, 10, 20 μmol/L (four points).
(§3) Each five kinds of substrates, human hepatic microsome, or a test drug in 50 mmol/L Hepes buffer as a reaction solution was added to a […] at the composition as described above, NADPH, as a cofactor was added to initiate metabolism reactions as markers and, after the incubation at 37° C. for 15 minutes, a methanol/acetonitrile=1/1 (v/v) solution was added to stop the reaction. After the centrifugation at 3000 rpm for 15 minutes, resorufin (CYP1A2 metabolite) in the supernatant was quantified by a fluorescent multilabel counter and tributamide hydroxide (CYP2CP metabolite), mephenytoin 4′hydroxide (CYP2C19 metabolite), […] (CYP2D6 metabolite), and terfenadine alcohol (CYP3A4 metabolite) were quantified by LC/MS/MS.
(§4) Addition of only DMSO being a solvent dissolving a drug to a reaction system was adopted as a control (100%), remaining activity (%) was calculated at each concentration of a test drug added as the solution and IC50 was calculated by reverse presumption by a logistic model using a concentration and an inhibition rate.

CYP2C9 = CYP2C9 (Homo sapiens (Human), UniProt P11712); experiment: CYP inhibition test, CYP2C9; format: in vitro ADME; conditions: pooled human hepatic microsome; tolbutamide methyl-hydroxylation
Method: as §1, §2, §3, §4

CYP2C19 = CYP2C19 (Homo sapiens (Human), UniProt P33261); experiment: CYP inhibition test, CYP2C19; format: in vitro ADME; conditions: pooled human hepatic microsome; mephenytoin 4′-hydroxylation
Method: as §1, §2, §3, §4

CYP2D6 = CYP2D6 (Homo sapiens (Human), UniProt P10635); experiment: CYP inhibition test, CYP2D6; format: in vitro ADME; conditions: pooled human hepatic microsome; dextromethorphan O-demethylation
Method: as §1, §2, §3, §4

CYP3A4 = CYP3A4 (Homo sapiens (Human), UniProt P08684); experiment: CYP inhibition test, CYP3A4; format: in vitro ADME; conditions: pooled human hepatic microsome; terfenedine hydroxylation
Method: as §1, §2, §3, §4

[1] = Solubility test (1% DMSO, artificial intestinal juice pH 6.8); format: physicochemical; conditions: artificial intestinal juice pH 6.8 with 1% DMSO, 25 °C, fassgf or other biorelevant, kinetic from dmso stock, artificial intestinal juice pH 6.8, 25 degrees Celsius, read-out: Solubulity
Method: The solubility of a compound was determined under a condition in which 1% DMSO was added. 10 mmol/L compound solution was prepared using DMSO, and then 2 μL of the compound solution was added to 198 μL of artificial intestinal juice in pH 6.8 (to 250 mL of 0.2 mol/L potassium dihydrogen phosphate reagent solution was added 118 mL of 0.2 mol/L NaOH reagent solution and water to provide a final volume of 1000 mL). After standing at 25 degrees Celsius for 18 hours, the mixed solution was filtrated with suction. The filtrate was diluted twice with methanol/water (1/1), and then a concentration in the filtration was measured with HPLC or LC/MS/MS by the absolute calibration method.

[2] = Metabolism stability test, pooled human hepatic microsomes; format: in vitro ADME; conditions: remaining rate, human liver microsomes, 30 minutes, compound concentration 0.5 μmol/L
Method: Using commercially available pooled human hepatic microsomes, a test compound is reacted for a constant time, a remaining rate is calculated by comparing a reacted sample and an unreacted sample, thereby, a degree of metabolism in liver is assessed.
A reaction was performed (oxidative reaction) at 37° C. for 0 minute or 30 minutes in the presence of 1 mmol/L NADPH in 0.2 mL of a buffer (50 mmol/L tris-HCl pH 7.4, 150 mmol/L potassium chloride, 10 mmol/L magnesium chloride) containing 0.5 mg protein/mL of human liver microsomes. After the reaction, 50 μL of the reaction solution was added to 100 μL of a methanol/acetonitrile=1/1 (v/v) mixed and centrifuged at 3000 rpm for 15 minutes. The test compound in the supernatant was quantified by LC/MS/MS, and a remaining amount of the test compound after the reaction was calculated, letting a compound amount at 0 minute reaction time to be 100%.
The remaining rate at the compound concentration 0.5 μmol/L are shown below.

human P2X3 receptor [3] = target: T1, human P2X3 receptor (Homo sapiens (Human), UniProt P56373); experiment: Evaluation of human P2X3 receptor inhibitory activity in the presence of human serum albumin (HSA); format: cell-based; conditions: in the presence of 1% HSA (final concentration)
Method: Stably expressing cell line (C6BU-1 cell transfected with human P2X3 receptor gene (GenBank accession number Y07683; was used. The cells were seeded in a 96-well microtiter plate at a concentration of 8000 cells/well and cultured in the medium (7.0% fetal bovine serum, 7.0% horse serum, 1% antibiotic and antifungal, and 2.0% glutamine in DMEM) for one day at 37° C. under 5% carbon dioxide atmosphere. The medium was replaced with 4 μM Fluo-3-AM solution (20 mM HEPES, 137 mM NaCl, 5.37 mM KCl, 0.9 mM MgCl2, 1.26 mM CaCl2, 5.6 mM D-glucose, 2.5 mM probenecid, 0.5% BSA, and 0.04% Pluronic F-127, pH 7.5) and incubated at 37° C. under 5% dioxide carbon atmosphere for one hour. The plate was washed with washing buffer (20 mM HEPES, 137 mM NaCl, 5.27 mM KCl, 0.9 mM MgCl2, 1.26 mM CaCl2, 5.6 mM D-glucose, 2.5 mM probenecid, pH 7.5), and each well was added with 40 μL of this buffer. The plate was placed in High-Throughput Screening System FDSS 3000 (Hamamatsu Photonics K.K.). Measurement of fluorescence intensity by FDSS 3000 was started, and 40 μL of DMSO solutions containing 1% HSA (final concentrations) different concentrations of the test compound as prepared by dilution with dilution buffer (20 mM HEPES, 137 mM NaCl, 5.27 mM KCl, 0.9 mM MgCl2, 1.26 mM CaCl2, 5.6 mM D-glucose, 2.5 mM probenecid, 0.1% Pluronic F-127, pH 7.5) were dispensed to each well through the built-in automatic dispenser. Five minutes after, 50 nM ATP solution (50 μL) prepared by dilution with the dilution buffer was dispensed through the built-in automatic dispenser, and the measurement of fluorescence intensity was continued for 4 min. For each well, the specific maximum fluorescence intensity was calculated as the ratio of the maximum fluorescence intensity after addition of the ATP solution to the fluorescence intensity at the starting of the measurement. […] FDSS software (Hamamatsu Photonics K.K.) was used for calculation of the specific maximum fluorescence intensity. IC50 was calculated using Microsoft Excel (Microsoft Corporation) and XLfit (idbs Ltd.)

human P2X3 receptor [4] = target: T1, human P2X3 receptor; experiment: Evaluation of human P2X3 receptor inhibitory activity (FLIPR Ca fluorescence, ATP-evoked); format: cell-based; conditions: C6BU-1 cells stably expressing human P2X3 receptor
Method: Stably expressing cell line (C6BU-1 cell transfected with human P2X3 receptor gene (GenBank accession number Y07683) was used. The cells were seeded in a 384-well PDL-coated microtiter plate at a concentration of 3000 cells/well and cultured in the medium (8.3% fetal bovine serum, 8.3% horse serum, and 1% antibiotic and antifungal in DMEM) for one day at 37° C. under 5% carbon dioxide atmosphere. The medium was replaced with 4 μM Fluo-3-AM solution (20 mM HEPES, 137 mM NaCl, 2.7 mM KCl, 0.9 mM MgCl2, 5.0 mM CaCl2, 5.6 mM D-glucose, 2.5 mM probenecid, 0.5% BSA, and 0.04% Pluronic P-127, pH 7.5) and incubated at 37° C. under 5% dioxide carbon atmosphere for one hour. The plate was washed with washing buffer (20 mM HEPES, 137 mM NaCl, 2.7 mM KCl, 0.9 mM MgCl2, 5.0 mM CaCl2, 5.6 mM D-glucose, 2.5 mM probenecid, pH 7.5), and each well was added with 20 μL of the washing buffer. The plate was placed in High-Throughput Screening System FLIPR 384 (Molecular Device Co.). Measurement of fluorescence intensity by […] was started, and 20 μL of DMSO solutions containing different concentrations of the test compound as prepared by dilution with dilution buffer (20 mM HEPES, 137 mM NaCl, 2.7 mM KCl, 0.9 mM MgCl2, 5.0 mM CaCl2, 5.6 mM D-glucose, 2.5 mM probenecid, 0.1% Pluronic F-127, pH 7.5) were dispensed to each well through the built-in automatic dispenser. Five minutes after, 150 nM ATP solution (25 μL) prepared by dilution with the dilution buffer was dispensed through the built-in automatic dispenser, and the measurement of fluorescence intensity was continued for 4 min. For each well, the specific maximum fluorescence intensity was calculated as the ratio of the maximum fluorescence intensity after addition of the ATP solution to the fluorescence intensity at the starting of the measurement. […] The specific maximum fluorescence intensify and IC50 were calculated using Spotfire (Science & Technology Systems. Inc.)

T1 sequence (P56373 whole entry): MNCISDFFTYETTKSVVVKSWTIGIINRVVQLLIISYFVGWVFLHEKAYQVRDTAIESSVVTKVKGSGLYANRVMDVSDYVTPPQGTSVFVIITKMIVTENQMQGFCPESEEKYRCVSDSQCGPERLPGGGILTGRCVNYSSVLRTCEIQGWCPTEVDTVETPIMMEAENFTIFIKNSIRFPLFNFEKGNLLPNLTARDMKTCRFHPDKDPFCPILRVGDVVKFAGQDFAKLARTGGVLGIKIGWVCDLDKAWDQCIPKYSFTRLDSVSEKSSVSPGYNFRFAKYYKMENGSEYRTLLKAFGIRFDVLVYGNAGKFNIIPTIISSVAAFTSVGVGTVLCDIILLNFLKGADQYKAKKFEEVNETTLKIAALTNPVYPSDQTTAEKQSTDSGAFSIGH
Sequence of CYP1A2 (P05177 whole entry): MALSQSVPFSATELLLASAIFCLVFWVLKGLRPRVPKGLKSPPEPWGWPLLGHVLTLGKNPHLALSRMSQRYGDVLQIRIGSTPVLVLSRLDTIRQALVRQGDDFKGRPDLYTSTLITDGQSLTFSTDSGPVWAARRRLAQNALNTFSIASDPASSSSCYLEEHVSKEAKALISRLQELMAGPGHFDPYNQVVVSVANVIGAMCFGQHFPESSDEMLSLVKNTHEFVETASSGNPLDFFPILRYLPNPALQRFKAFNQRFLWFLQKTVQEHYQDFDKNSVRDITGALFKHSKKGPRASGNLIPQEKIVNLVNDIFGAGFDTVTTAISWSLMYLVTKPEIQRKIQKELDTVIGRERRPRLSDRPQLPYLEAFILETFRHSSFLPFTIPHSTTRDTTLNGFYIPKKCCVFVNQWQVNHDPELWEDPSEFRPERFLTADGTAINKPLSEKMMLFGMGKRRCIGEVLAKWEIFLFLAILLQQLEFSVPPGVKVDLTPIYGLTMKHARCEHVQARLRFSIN
Sequence of CYP3A4 (P08684 whole entry): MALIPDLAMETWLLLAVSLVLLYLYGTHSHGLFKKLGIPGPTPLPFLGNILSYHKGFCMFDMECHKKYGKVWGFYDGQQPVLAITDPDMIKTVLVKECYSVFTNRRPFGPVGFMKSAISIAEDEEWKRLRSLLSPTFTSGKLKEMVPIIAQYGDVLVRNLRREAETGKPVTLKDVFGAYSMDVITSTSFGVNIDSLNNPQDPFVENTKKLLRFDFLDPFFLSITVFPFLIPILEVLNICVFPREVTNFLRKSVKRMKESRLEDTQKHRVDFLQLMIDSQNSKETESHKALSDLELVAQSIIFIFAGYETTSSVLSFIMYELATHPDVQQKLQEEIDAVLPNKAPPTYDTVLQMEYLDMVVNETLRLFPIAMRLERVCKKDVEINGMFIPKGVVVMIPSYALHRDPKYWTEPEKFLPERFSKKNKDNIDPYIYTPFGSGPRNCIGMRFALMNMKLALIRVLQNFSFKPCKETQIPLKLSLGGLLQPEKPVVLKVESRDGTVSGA
Sequence of CYP2C19 (P33261 whole entry): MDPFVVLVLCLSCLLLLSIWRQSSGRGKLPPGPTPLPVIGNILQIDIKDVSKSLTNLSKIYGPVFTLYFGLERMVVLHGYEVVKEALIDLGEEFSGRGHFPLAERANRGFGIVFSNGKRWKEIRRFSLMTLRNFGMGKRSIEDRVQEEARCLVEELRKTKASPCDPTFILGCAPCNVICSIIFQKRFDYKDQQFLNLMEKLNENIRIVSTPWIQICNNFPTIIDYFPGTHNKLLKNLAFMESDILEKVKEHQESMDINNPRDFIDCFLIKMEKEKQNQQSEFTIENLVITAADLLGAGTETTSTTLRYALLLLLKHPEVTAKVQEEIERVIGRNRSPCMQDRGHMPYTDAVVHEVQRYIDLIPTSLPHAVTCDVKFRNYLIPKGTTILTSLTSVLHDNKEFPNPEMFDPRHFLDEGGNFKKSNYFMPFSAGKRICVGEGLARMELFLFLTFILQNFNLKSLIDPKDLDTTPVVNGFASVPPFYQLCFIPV
Sequence of CYP2C9 (P11712 whole entry): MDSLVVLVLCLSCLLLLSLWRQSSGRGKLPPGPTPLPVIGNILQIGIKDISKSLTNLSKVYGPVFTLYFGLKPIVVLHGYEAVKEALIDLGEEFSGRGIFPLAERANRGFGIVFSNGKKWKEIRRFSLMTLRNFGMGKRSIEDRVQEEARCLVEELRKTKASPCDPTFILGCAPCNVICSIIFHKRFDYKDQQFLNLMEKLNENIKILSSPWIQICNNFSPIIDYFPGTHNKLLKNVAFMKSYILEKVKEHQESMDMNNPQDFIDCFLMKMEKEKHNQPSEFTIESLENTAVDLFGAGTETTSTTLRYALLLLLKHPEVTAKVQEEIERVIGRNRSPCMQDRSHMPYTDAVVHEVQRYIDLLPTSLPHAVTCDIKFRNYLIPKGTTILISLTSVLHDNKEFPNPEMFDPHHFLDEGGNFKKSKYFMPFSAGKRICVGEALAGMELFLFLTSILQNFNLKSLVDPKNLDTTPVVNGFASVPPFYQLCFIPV
Sequence of CYP2D6 (P10635 whole entry): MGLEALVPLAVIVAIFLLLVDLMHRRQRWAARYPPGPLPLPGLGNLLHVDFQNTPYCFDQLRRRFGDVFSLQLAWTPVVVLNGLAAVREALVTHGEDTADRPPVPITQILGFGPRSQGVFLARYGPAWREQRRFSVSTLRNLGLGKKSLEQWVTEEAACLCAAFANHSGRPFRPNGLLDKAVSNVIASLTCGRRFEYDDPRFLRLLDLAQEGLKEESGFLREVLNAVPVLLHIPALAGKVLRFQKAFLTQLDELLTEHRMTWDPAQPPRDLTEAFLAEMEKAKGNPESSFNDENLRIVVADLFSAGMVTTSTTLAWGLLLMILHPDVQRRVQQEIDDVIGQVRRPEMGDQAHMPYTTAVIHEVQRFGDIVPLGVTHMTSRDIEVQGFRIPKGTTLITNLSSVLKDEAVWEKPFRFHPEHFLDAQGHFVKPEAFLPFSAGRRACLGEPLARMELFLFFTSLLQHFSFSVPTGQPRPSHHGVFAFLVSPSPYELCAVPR

Structure (SMILES): O=c1[nH]/c(=N\c2ccc(Oc3ncccc3F)cc2)n(Cc2ccc(Cl)cc2)c(=O)n1[C@H]1C[C@H](C(=O)O)C1 [Compound I-063]
- IC50 (CYP1A2): > 20000 nM
- IC50 (CYP2C9): > 20000 nM
- IC50 (CYP2C19): > 20000 nM
- IC50 (CYP2D6): > 20000 nM
- IC50 (CYP3A4): > 20000 nM
- solubility at 18 h [1]: > 50 µM
- Metabolism Stability [2]: 97%

Structure (SMILES): C[C@@H](Cn1c(=O)[nH]/c(=N\c2ccc(Oc3cc(F)ccn3)cc2)n(Cc2ccc(Cl)cc2)c1=O)C(=O)O [Compound I-070]
- IC50 (human P2X3 receptor [3]): 37 nM
- Metabolism Stability [2]: 103%

Structure (SMILES): COc1ccc(Oc2ccc(/N=c3\[nH]c(=O)n(C[C@H](C)C(=O)O)c(=O)n3Cc3ccc(Cl)cc3)cc2)nc1 [Compound I-079]
- IC50 (human P2X3 receptor [3]): 37 nM

Structure (SMILES): [2H]C([2H])([2H])c1ccc(Cn2c(=O)n(C[C@H](C)C(=O)O)c(=O)[nH]/c2=N\c2ccc(Oc3ccc(F)cn3)cc2)cc1 [Compound I-130]
- IC50 (human P2X3 receptor [4]): 6 nM

Structure (SMILES): COC(=O)[C@@H](C)Cn1c(=O)[nH]/c(=N\c2ccc(Oc3ccccn3)c(F)c2)n(C[C@H]2CC[C@H](C)CC2)c1=O [Compound I-253]
- IC50 (human P2X3 receptor [4]): 9 nM

Structure (SMILES): C[C@@H](Cn1c(=O)[nH]/c(=N\c2ccc(Oc3ccnc(C#N)c3)cc2)n(Cc2ccc(Cl)cc2)c1=O)C(=O)O [Compound R-123]
- IC50 (human P2X3 receptor [3]): 18 nM

Structure (SMILES): C[C@@H](C(=O)O)[C@H](C)n1c(=O)[nH]/c(=N\c2ccc(Oc3ccnc(Cl)c3)cc2)n(Cc2ccc(Cl)cc2)c1=O [Compound R-154]
- IC50 (human P2X3 receptor [4]): 8 nM

Structure (SMILES): Cc1ccc(Cn2c(=O)n(C[C@H](C)C(=O)O)c(=O)[nH]/c2=N\c2ccc(Oc3ncc(C)s3)cc2)cc1 [Compound R-218]
- IC50 (human P2X3 receptor [4]): 8 nM
